Reference: patent publication US11884675B2, “Heterocyclic compounds as triggering receptor expressed on myeloid cells 2 agonists and methods of use” (AMGEN INC., priority 2020, dated 2024)

What follows are molecules tested against hTREM2 (Homo sapiens, UniProt Q9NZC2) (assay: TREM2 activity by cellular Syk phosphorylation (AlphaScreen/AlphaLISA) in TREM2/DAP12-HEK cells, used for Examples 1-305). Conditions: HEK293 Cells.
Chain of hTREM2 (Q9NZC2 19-230): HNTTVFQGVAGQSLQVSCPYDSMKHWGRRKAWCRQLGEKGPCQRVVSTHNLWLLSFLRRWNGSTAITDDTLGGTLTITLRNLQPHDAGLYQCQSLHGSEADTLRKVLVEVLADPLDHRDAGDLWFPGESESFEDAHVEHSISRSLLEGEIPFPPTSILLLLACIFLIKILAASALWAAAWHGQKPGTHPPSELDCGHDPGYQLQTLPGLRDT
Chain of hTREM2 (O43914 22-113 partner): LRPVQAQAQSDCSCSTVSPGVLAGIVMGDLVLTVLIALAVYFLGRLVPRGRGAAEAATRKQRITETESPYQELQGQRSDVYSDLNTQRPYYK
Assay type: cell-based
Parameters: expressed in transfected cells
Outline: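 Phospho-Syk (Tyr525/526) over total Syk quantified by AlphaScreen in lysates of cloned TREM2/DAP12-overexpressing HEK293 cells after 45 min compound treatment at room temperature, 1% final DMSO. Values expressed relative to 100 nM anti-TREM2 antibody (positive) and isotype IgG (negative) controls; curves fitted with 4-parameter logistic model.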
For `Cc1cc([C@H]2CN(c3cc4nc(C)c(C)nc4c([C@H]4C[C@H](C(F)(F)F)C4)n3)CCO2)ccn1` [Example 82], the EC50 was 50 to 500 nM and the “hTREM2 Emax” value was “+++ (Emax>150 and ≤250)”.
In the case of `Cc1cnc2c(-c3ccc(F)cc3F)nc(N3CCO[C@H]([C@@H]4CCOC4)C3)nc2n1` [Example 253, (R)-4-(4-(2,4-difluorophenyl)-7-methylpteridin-2-yl)-2-((R)-tetrahydrofuran-3-yl)morpholine], the EC50 is reported as 3000 to 100000 nM and the “hTREM2 Emax” value is reported as “+++ (Emax>150 and ≤250)”.
`Cc1ccc(-c2nc(N3CCO[C@@H](c4cnn(C)c4)C3)nc3nc(C)c(C)nc23)c(F)c1` [Example 37, 4-(2-fluoro-4-methylphenyl)-6,7-dimethyl-2-((2S)-2-(1-methyl-1H-pyrazol-4-yl)-4-morpholinyl)pteridine] was tested, and the EC50 was ≤ 50 nM and the “hTREM2 Emax” value was “+++ (Emax>150 and ≤250)”.
For `Cc1nc2cc([C@H]3CCO[C@@H](c4cnn(C)c4)C3)nc(-c3ccc(F)cc3F)c2nc1C` (single isomer, unassigned) [Example 195], the EC50 was ≤ 50 nM and the “hTREM2 Emax” value was “++++ (Emax>250)”.
`Cc1nc2nc(N3CCO[C@@H](c4cnn(C)c4)C3)nc(N3CCC(C)(C)CC3)c2nc1C` [Example 67, 4-(4,4-dimethyl-1-piperidinyl)-6,7-dimethyl-2-((2S)-2-(1-methyl-1H-pyrazol-4-yl)-4-morpholinyl)pteridine] was tested, and the EC50 was 50 to 500 nM and the “hTREM2 Emax” value was “+ (Emax>45 and ≤100)”.
`Cc1ccc(-c2nc(N3CCO[C@@H](c4cnn(C5CC5)c4)C3)nc3nc(C)ccc23)c(F)c1` [Example 95, 2-((2S)-2-(1-cyclopropyl-1H-pyrazol-4-yl)-4-morpholinyl)-4-(2-fluoro-4-methylphenyl)-7-methylpyrido[2,3-d]pyrimidine] was tested, and the EC50 was ≤ 50 nM and the “hTREM2 Emax” value was “+++ (Emax>150 and ≤250)”.
For `Cc1nc2nc([C@@H]3CCO[C@H](c4cnn(C)c4)C3)nc(C3CCC(F)(F)CC3)c2nc1C` (single isomer, unassigned) [Example 175], the EC50 was 500 to 3000 nM and the “hTREM2 Emax” value was “++ (Emax>100 and ≤150)”.
With `Cc1nc2nc(N3CCO[C@@H](c4cnn(C5CC5)c4)C3)nc([C@H]3C[C@H](C(F)(F)F)C3)c2nc1C` [Example 50, 2-((2S)-2-(1-cyclopropyl-1H-pyrazol-4-yl)-4-morpholinyl)-6,7-dimethyl-4-(trans-3-(trifluoromethyl)cyclobutyl)pteridine] the EC50 was ≤ 50 nM and the “hTREM2 Emax” value was “+++ (Emax>150 and ≤250)”.
In the case of `Cc1ccc(-c2nc(N3CCO[C@@H](c4cnn(C)c4)C3)nc3nc(C)ccc23)c(F)c1` [Example 94, 4-(2-fluoro-4-methylphenyl)-7-methyl-2-((2S)-2-(1-methyl-1H-pyrazol-4-yl)-4-morpholinyl)pyrido[2,3-d]pyrimidine], the EC50 is reported as 50 to 500 nM and the “hTREM2 Emax” value is reported as “+++ (Emax>150 and ≤250)”.
With `Cc1cc([C@@H]2C[C@H](c3nc(-c4ccc(Cl)cc4F)c4ncc(C)nc4n3)CCO2)ccn1` (single isomer, unassigned) [Example 172] the EC50 was 50 to 500 nM and the “hTREM2 Emax” value was “++++ (Emax>250)”.
`Cc1nc2nc(N3CCO[C@@H](c4cnn(C5CC5)c4)C3)nc([C@H]3C[C@@H](C(F)F)C3)c2nc1C` [Example 47, 2-((2S)-2-(1-cyclopropyl-1H-pyrazol-4-yl)-4-morpholinyl)-4-(cis-3-(difluoromethyl)cyclobutyl)-6,7-dimethylpteridine] was tested, and the EC50 was ≤ 50 nM and the “hTREM2 Emax” value was “+ (Emax>45 and ≤100)”.
For `Cc1ccc(-c2nc([C@H]3CCO[C@@H](c4cnn(C)c4)C3)nc3nc(C)c(C)cc23)c(F)c1` (single isomer, unassigned) [Example 203], the EC50 was ≤ 50 nM and the “hTREM2 Emax” value was “+++ (Emax>150 and ≤250)”.
With `Cc1cnc2c(-c3ccc(Cl)cc3F)nc([C@H]3CCO[C@@H](c4cnn(C5CC5)c4)C3)nc2n1` (single isomer, unassigned) [Example 170] the EC50 was ≤ 50 nM and the “hTREM2 Emax” value was “++++ (Emax>250)”.
In the case of `Cc1cc([C@@H]2C[C@@H](c3nc(-c4ccc(F)cc4F)c4ccc(C)nc4n3)CCO2)ccn1` (single isomer, unassigned) [Example 221], the EC50 is reported as 500 to 3000 nM.
`Cc1nc2nc([C@H]3CCO[C@@H](c4cnn(C5CC5)c4)C3)nc(-c3ccc(C(F)(F)F)nc3)c2nc1C` [Example 300, 2-((2R,4S)-2-(1-cyclopropyl-1H-pyrazol-4-yl)tetrahydro-2H-pyran-4-yl)-6,7-dimethyl-4-(6-(trifluoromethyl)pyridin-3-yl)pteridine] was tested, and the EC50 was 50 to 500 nM and the “hTREM2 Emax” value was “+++ (Emax>150 and ≤250)”.
For `Cc1cc([C@H]2C[C@H](c3nc(-c4ccc(F)cc4F)c4cc(C)c(C)nc4n3)CCO2)ccn1` (single isomer, unassigned) [Example 228], the EC50 was ≤ 50 nM and the “hTREM2 Emax” value was “+++ (Emax>150 and ≤250)”.
With `Cc1nc2nc(N3CCO[C@H]([C@@H]4CCOC4)C3)nc(-c3ccc(F)cc3F)c2nc1C` (single isomer, unassigned) [Example 35] the EC50 was 50 to 500 nM and the “hTREM2 Emax” value was “+++ (Emax>150 and ≤250)”.
In the case of `Cc1nc2nc(N3CCO[C@@H](c4cnn(C5CC5)c4)C3)nc(-c3ccc(C(F)(F)F)nc3)c2nc1C` [Example 298, (S)-2-(1-cyclopropyl-1H-pyrazol-4-yl)-4-(6,7-dimethyl-4-(6-(trifluoromethyl)pyridin-3-yl)pteridin-2-yl)morpholine], the EC50 is reported as ≤ 50 nM and the “hTREM2 Emax” value is reported as “+++ (Emax>150 and ≤250)”.
With `Cc1ncc([C@@H]2CN(c3nc(-c4ccc(Cl)cc4F)c4cc(C)c(C)nc4n3)CCO2)cn1` (single isomer, unassigned) [Example 106] the EC50 was 50 to 500 nM and the “hTREM2 Emax” value was “+++ (Emax>150 and ≤250)”.
`Cc1ccc2c(n1)nc(N1CCO[C@@H](c3cnn(C4CC4)c3)C1)nc2[C@H]1CC[C@H](C(F)(F)F)CC1` [Example 145, 2-((2S)-2-(1-cyclopropyl-1H-pyrazol-4-yl)-4-morpholinyl)-7-methyl-4-(trans-4-(trifluoromethyl)cyclohexyl)pyrido [2,3-d]pyrimidine] was tested, and the EC50 was ≤ 50 nM and the “hTREM2 Emax” value was “+ (Emax>45 and ≤100)”.
For `Cc1cc([C@H]2CN(c3nc(-c4ccc(F)cc4F)c4nc(C)c(C)nc4n3)CCO2)ccn1` [Example 33, 4-(2,4-difluorophenyl)-6,7-dimethyl-2-((2S)-2-(2-methyl-4-pyridinyl)-4-morpholinyl)pteridine], the EC50 was ≤ 50 nM and the “hTREM2 Emax” value was “++++ (Emax>250)”.
`Cc1cc2c(OC[C@H]3C[C@@H](C(F)(F)F)C3)nc(N3CCO[C@@H](c4cnn(C)c4)C3)nc2nc1C` [Example 109, 6,7-dimethyl-2-((2S)-2-(1-methyl-1H-pyrazol-4-yl)-4-morpholinyl)-4-((cis-3-(trifluoromethyl)cyclobutyl)methoxy)pyrido[2,3-d]pyrimidine] was tested, and the EC50 was 3000 to 100000 nM.
For `Cc1ccc(-c2cc([C@H]3CCO[C@H](c4cnn(C)c4)C3)nc3nc(C)c(C)nc23)c(F)c1` [Example 266, 8-(2-fluoro-4-methylphenyl)-2,3-dimethyl-6-((2S,4S)-2-(1-methyl-1H-pyrazol-4-yl)tetrahydro-2H-pyran-4-yl)pyrido[2,3-b]pyrazine], the EC50 was 500 to 3000 nM and the “hTREM2 Emax” value was “++++ (Emax>250)”.
With `Cc1cnc2c(-c3ccc(Cl)cc3F)cc([C@@H]3CCO[C@H](c4cnn(C)c4)C3)nc2n1` [Example 271, 8-(4-chloro-2-fluorophenyl)-3-methyl-6-((2S,4R)-2-(1-methyl-1H-pyrazol-4-yl)tetrahydro-2H-pyran-4-yl)pyrido [2,3-b]pyrazine] the EC50 was 3000 to 100000 nM and the “hTREM2 Emax” value was “+++ (Emax>150 and ≤250)”.
For `Cc1ccc(-c2nc(N3CCO[C@@H](c4ccnc(C)c4)C3)nc3nc(C)c(C)nc23)c(F)c1` [Example 39, 4-(2-fluoro-4-methylphenyl)-6,7-dimethyl-2-((2S)-2-(2-methyl-4-pyridinyl)-4-morpholinyl)pteridine], the EC50 was ≤ 50 nM and the “hTREM2 Emax” value was “+++ (Emax>150 and ≤250)”.
In the case of `Cc1nc2cc(N3CCO[C@@H](c4cnn(C5CC5)c4)C3)nc([C@H]3C[C@H](C(F)(F)F)C3)c2nc1C` [Example 81, 7-((2S)-2-(1-cyclopropyl-1H-pyrazol-4-yl)-4-morpholinyl)-2,3-dimethyl-5-(trans-3-(trifluoromethyl)cyclobutyl)pyrido[3,4-b]pyrazine], the EC50 is reported as 50 to 500 nM and the “hTREM2 Emax” value is reported as “++ (Emax>100 and ≤150)”.
`Cc1nc2nc(N3CCO[C@@H](c4cnn(C)c4)C3)nc(C3CC(F)(F)C3)c2nc1C` [Example 146, 4-(3,3-difluorocyclobutyl)-6,7-dimethyl-2-((2S)-2-(1-methyl-1H-pyrazol-4-yl)-4-morpholinyl) pteridine] was tested, and the EC50 was 500 to 3000 nM and the “hTREM2 Emax” value was “++ (Emax>100 and ≤150)”.
With `Cc1cc2c(-c3ccc(Cl)cc3F)nc([C@@H]3CCO[C@H](c4cnn(C)c4)C3)nc2nc1C` (single isomer, unassigned) [Example 226] the EC50 was 50 to 500 nM and the “hTREM2 Emax” value was “+++ (Emax>150 and ≤250)”.
In the case of `Cc1cc([C@H]2CN(c3nc4nc(C)c(C)nc4c([C@H]4C[C@@H](C(F)F)C4)n3)CCO2)ccn1` [Example 53, 4-(cis-3-(difluoromethyl)cyclobutyl)-6,7-dimethyl-2-((2S)-2-(2-methyl-4-pyridinyl)-4-morpholinyl)pteridine], the EC50 is reported as ≤ 50 nM and the “hTREM2 Emax” value is reported as “++ (Emax>100 and ≤150)”.
`Cc1cc2c(nc(N3CCO[C@@H](c4cnn(C5CC5)c4)C3)nc2[C@H]2C[C@H](C(F)(F)F)C2)nc1C` [Example 113, 2-((2S)-2-(1-cyclopropyl-1H-pyrazol-4-yl)-4-morpholinyl)-6,7-dimethyl-4-(trans-3-(trifluoromethyl)cyclobutyl)pyrido[2,3-d]pyrimidine] was tested, and the EC50 was ≤ 50 nM and the “hTREM2 Emax” value was “++ (Emax>100 and ≤150)”.
For `Cc1cnc2c(-c3ccc(Cl)cc3F)nc(N3CCO[C@H](c4cnc(C)nc4)C3)nc2n1` [Example 261, (R)-4-(4-(4-chloro-2-fluorophenyl)-7-methylpteridin-2-yl)-2-(2-methylpyrimidin-5-yl)morpholine], the EC50 was 500 to 3000 nM and the “hTREM2 Emax” value was “+++ (Emax>150 and ≤250)”.
For `Cc1cc2cc(N3CCO[C@@H](c4cnn(C)c4)C3)nc(-c3ccc(Cl)cc3F)c2nc1C` [Example 237, (S)-4-(8-(4-chloro-2-fluorophenyl)-2,3-dimethyl-1,7-naphthyridin-6-yl)-2-(1-methyl-1H-pyrazol-4-yl)morpholine], the EC50 was 3000 to 100000 nM and the “hTREM2 Emax” value was “+++ (Emax>150 and ≤250)”.
